pIC50: −log10 of the molar value.
Molecular target: EGFR (human) (UniProt P00533)
Conditions: a431

Chain of EGFR (human) (P00533 whole entry, looked up): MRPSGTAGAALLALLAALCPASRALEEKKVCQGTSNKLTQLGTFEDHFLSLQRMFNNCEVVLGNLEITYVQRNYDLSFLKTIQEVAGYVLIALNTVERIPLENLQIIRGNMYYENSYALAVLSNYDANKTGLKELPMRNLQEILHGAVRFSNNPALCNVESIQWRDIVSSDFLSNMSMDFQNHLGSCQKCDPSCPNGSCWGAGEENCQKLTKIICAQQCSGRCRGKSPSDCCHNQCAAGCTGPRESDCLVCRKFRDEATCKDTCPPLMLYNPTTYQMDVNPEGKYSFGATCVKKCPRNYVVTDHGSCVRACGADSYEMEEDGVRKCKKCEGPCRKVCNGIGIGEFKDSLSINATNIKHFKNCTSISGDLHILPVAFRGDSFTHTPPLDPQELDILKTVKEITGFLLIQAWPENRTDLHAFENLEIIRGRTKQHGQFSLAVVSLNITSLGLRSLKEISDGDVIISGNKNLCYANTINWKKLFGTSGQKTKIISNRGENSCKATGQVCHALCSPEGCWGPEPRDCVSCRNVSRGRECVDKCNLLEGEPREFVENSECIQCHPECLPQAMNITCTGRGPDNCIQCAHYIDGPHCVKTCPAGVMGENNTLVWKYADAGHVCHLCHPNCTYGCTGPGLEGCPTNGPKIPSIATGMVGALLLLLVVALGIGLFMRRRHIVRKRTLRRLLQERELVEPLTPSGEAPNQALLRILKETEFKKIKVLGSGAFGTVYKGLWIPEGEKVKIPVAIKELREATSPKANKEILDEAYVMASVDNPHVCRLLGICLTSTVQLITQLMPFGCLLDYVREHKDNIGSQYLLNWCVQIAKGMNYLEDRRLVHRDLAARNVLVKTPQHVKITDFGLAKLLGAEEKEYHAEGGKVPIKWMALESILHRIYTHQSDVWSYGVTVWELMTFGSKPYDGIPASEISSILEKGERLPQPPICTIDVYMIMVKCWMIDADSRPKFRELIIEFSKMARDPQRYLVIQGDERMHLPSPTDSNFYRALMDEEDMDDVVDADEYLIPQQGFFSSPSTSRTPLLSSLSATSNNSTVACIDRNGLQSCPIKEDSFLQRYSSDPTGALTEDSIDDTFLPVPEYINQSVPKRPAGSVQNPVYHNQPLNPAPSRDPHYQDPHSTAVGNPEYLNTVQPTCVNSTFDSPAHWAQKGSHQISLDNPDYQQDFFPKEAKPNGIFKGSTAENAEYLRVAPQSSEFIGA

| SMILES | pIC50 |
| --- | --- |
| Cc1c(C=C2C(=O)Nc3cc(NCc4ccc(F)cc4)c(F)cc32)[nH]c2c1C(=O)N(CCN1CCCCC1)CC2 | 6.47 |
| Cc1c(C=C2C(=O)Nc3ncc(Br)cc32)[nH]c2c1C(=O)N(CCN1CCCCC1)CC2 | 5.78 |
| CCN(CC)CCN1CCc2[nH]c(C=C3C(=O)Nc4ccc(OC)cc43)c(C)c2C1=O | 5.36 |
| Cc1c(C=C2C(=O)Nc3cccc(-c4cccc(F)c4)c32)[nH]c2c1C(=O)N(CCN1CCCCC1)CC2 | 6.74 |
| CCN(CC)CCN1CCc2[nH]c(C=C3C(=O)Nc4cccc(Br)c43)c(C)c2C1=O | 6.48 |
| CCN(CC)CCN1CCc2[nH]c(C=C3C(=O)Nc4c(N)cc(F)cc43)c(C)c2C1=O | 4.90 |
| CCN(CC)CCN1CCc2[nH]c(C=C3C(=O)Nc4ccc(Cl)cc43)c(C)c2C1=O | 5.98 |
| CCN(CC)CCN1CCc2[nH]c(C=C3C(=O)Nc4c(NC(C)=O)cc(F)cc43)c(C)c2C1=O | 5.86 |
| CCN(CC)CCN1CCc2[nH]c(C=C3C(=O)Nc4ccc(F)cc43)c(C)c2C1=O | 5.96 |
| Cc1c(C=C2C(=O)Nc3cccc(Br)c32)[nH]c2c1C(=O)N(CCN1CCCC1)CC2 | 6.70 |
| CCN(CC)CCN1CCc2[nH]c(C=C3C(=O)Nc4cccc(-c5ccc(Cl)cc5F)c43)c(C)c2C1=O | 5.49 |
| Cc1c(C=C2C(=O)Nc3ccc(NC=O)cc32)[nH]c2c1C(=O)N(CCN1CCCCC1)CC2 | 6.92 |
| O=C(CO)Nc1cc2c(cc1F)C(=Cc1[nH]c3c(c1-c1ccc(F)cc1)C(=O)NCC3)C(=O)N2 | 5.51 |
| CCN(CC)CCN1CCc2[nH]c(C=C3C(=O)Nc4cccc(C5CCNCC5)c43)c(C)c2C1=O | 6.46 |
| Cc1c(C=C2C(=O)Nc3ccc(Cl)cc32)[nH]c2c1C(=O)N(CCN1CCOCC1)CC2 | 4.99 |
| Cc1c(C=C2C(=O)Nc3cccc(C4CCNCC4)c32)[nH]c2c1C(=O)N(CCN1CCOCC1)CC2 | 5.72 |
| CCN(CC)CCN1CCc2[nH]c(C=C3C(=O)Nc4ccc(-c5ccc(OC)cc5)cc43)c(C)c2C1=O | 5.41 |
| CCN(CC)CCN1CCc2[nH]c(C=C3C(=O)Nc4ccc(NC=O)cc43)c(C)c2C1=O | 6.08 |
| Cc1c(C=C2C(=O)Nc3cccc(CCO)c32)[nH]c2c1C(=O)N(CCN1CCOCC1)CC2 | 4.78 |
| Cc1c(C=C2C(=O)Nc3ccc(F)cc32)[nH]c2c1C(=O)N(CCN1CCOCC1)CC2 | 5.87 |
| CCN(CC)CCN1CCc2[nH]c(C=C3C(=O)Nc4cccc(-c5cccc(Cl)c5F)c43)c(C)c2C1=O | 5.14 |
| CCN(CC)CCN1CCc2[nH]c(C=C3C(=O)Nc4ncnc(Nc5ccc(F)c(Cl)c5)c43)c(C)c2C1=O | 7.17 |

| SMILES | pIC50 |
| --- | --- |
| Cc1c(C=C2C(=O)Nc3cccc(-c4cccc(Cl)c4F)c32)[nH]c2c1C(=O)N(CCN1CCOCC1)CC2 | 5.21 |
| CCN(CC)CCN1CCc2[nH]c(C=C3C(=O)Nc4c(NC=O)cc(F)cc43)c(C)c2C1=O | 5.86 |
| Cc1c(C=C2C(=O)Nc3ccc(F)cc32)[nH]c2c1C(=O)N(CCN1CCCC1)CC2 | 5.88 |
| Cc1c(C=C2C(=O)Nc3cc(NC(=O)CO)c(F)cc32)[nH]c2c1C(=O)N(CCN1CCCCC1)CC2 | 5.90 |
| Cc1c(C=C2C(=O)Nc3cccc(-c4cccc(Cl)c4F)c32)[nH]c2c1C(=O)N(CCN1CCCC1)CC2 | 4.86 |
| CCN(CC)CCN1CCc2[nH]c(C=C3C(=O)Nc4cccc(-c5cccc(F)c5F)c43)c(C)c2C1=O | 6.42 |
| Cc1c(C=C2C(=O)Nc3cccc(C4CCNCC4)c32)[nH]c2c1C(=O)N(CCN1CCCC1)CC2 | 6.23 |
| CCN(CC)CCN1CCc2[nH]c(C=C3C(=O)Nc4cc(NC(C)=O)c(F)cc43)c(C)c2C1=O | 5.03 |
| CCN(CC)CCN1CCc2[nH]c(C=C3C(=O)Nc4ccc(Br)cc43)c(C)c2C1=O | 5.90 |
| CCN(CC)CCN1CCc2[nH]c(C=C3C(=O)Nc4cc(NC=O)c(F)cc43)c(C)c2C1=O | 6.43 |
| Cc1c(C=C2C(=O)Nc3ncnc(Nc4ccc(F)c(Cl)c4)c32)[nH]c2c1C(=O)N(CCN1CCOCC1)CC2 | 6.48 |
| Cc1c(C=C2C(=O)Nc3cc(N)c(F)cc32)[nH]c2c1C(=O)N(CCN1CCCC1)CC2 | 4.97 |
| Cc1c(C=C2C(=O)Nc3cccc(CCO)c32)[nH]c2c1C(=O)N(CCN1CCCC1)CC2 | 5.77 |
| Cc1c(C=C2C(=O)Nc3ncc(Br)cc32)[nH]c2c1C(=O)N(CCN1CCOCC1)CC2 | 4.80 |
| CCN(CC)CCN1CCc2[nH]c(C=C3C(=O)Nc4cc(N)c(F)cc43)c(C)c2C1=O | 4.98 |
| Cc1c(C=C2C(=O)Nc3cccc(-c4c(F)cccc4F)c32)[nH]c2c1C(=O)N(CCN1CCCCC1)CC2 | 6.28 |
| Cc1c(C=C2C(=O)Nc3ccc(NS(C)(=O)=O)cc32)[nH]c2c1C(=O)N(CCN1CCOCC1)CC2 | 5.55 |
| COCC(=O)Nc1cc2c(cc1F)C(=Cc1[nH]c3c(c1-c1ccc(F)cc1)C(=O)NCC3)C(=O)N2 | 5.69 |
| CCN(CC)CCN1CCc2[nH]c(C=C3C(=O)Nc4cccc(CCO)c43)c(C)c2C1=O | 5.41 |
| Cc1c(C=C2C(=O)Nc3c(Br)cc(F)cc32)[nH]c2c1C(=O)N(CCN1CCCCC1)CC2 | 6.57 |
| Cc1c(C=C2C(=O)Nc3cccc(-c4cccc(F)c4F)c32)[nH]c2c1C(=O)N(CCN1CCCC1)CC2 | 5.66 |

— the Kinase Knowledgebase extract (Sharma et al. 2016)
